Read-outs that look alike come from different tables or passages of the source.
How the values were obtained:
[1] = molecular target: T1, wild-type HCV genotype 1b NS5B protein (recombinant HCV polymerase) (Hepatitis C virus genotype 1b, UniProt Q9WMX2); test: HCV Polymerase Enzyme Assay, wild-type; format: biochemical
T1 construct: HCV genotype 1b NS5B protein were used to generate recombinant HCV polymerases (with a deletion of the 21 carboxy terminal amino acids); made in house
From the text: (§1) Test compounds in the form of nucleoside triphosphates were examined for inhibitory activity against purified HCV polymerase in a standard assay. Bacterial expression constructs encoding the approximately 65 kDa HCV genotype 1b NS5B protein were used to generate recombinant HCV polymerases (with a deletion of the 21 carboxy terminal amino acids). Both the wild-type genotype 1b protein and protein containing the S282T mutation were expressed and purified for use in the enzymatic activity assay.
(§2) The enzymatic activity assay measured the inhibitory effect of increasing concentrations of test compound on the incorporation of α-[^33P]-labeled nucleotide into trichloroacetic acid-precipitable material. Recombinant polymerase and synthetic RNA template were combined in reaction buffer containing ribonucleoside triphosphates, α-[^33P]-labeled nucleotide and eight concentrations of test compound in three-fold dilutions. Reactions were incubated for two hours at 30° C.
(§3) Reactions were terminated by the addition of ice-cold trichloroacetic acid and sodium pyrophosphate to promote precipitation of newly-synthesized ribonucleic acid. Precipitable material from the reactions was collected by filtration onto 96-well filter plates, washed extensively with water, and quantified by liquid scintillation.
(§4) The inhibitory activity of test compounds was determined by fitting results to dose-response curves using XLfit software.

[2] = molecular target: T2, HCV genotype 1b NS5B protein containing the S282T mutation (Hepatitis C virus genotype 1b, UniProt Q9WMX2, S2701T); test: HCV Polymerase Enzyme Assay, S282T; format: biochemical; settings: nucleoside triphosphates; genotype 1b NS5B with S282T mutation
T2 construct: HCV genotype 1b NS5B protein were used to generate recombinant HCV polymerases (with a deletion of the 21 carboxy terminal amino acids); made in house
From the text: as §1
as §2, with “Reactions were incubated for two hours at 30° C.” left out
as §3, §4

HCV genotype 1b replicon = test: HCV Replicon Assay (Zluc, luciferase); format: cell-based; settings: Zluc cells (Huh-7-derived), 72 hours of incubation
Method: Huh-7-derived cell line (Zluc) that harbors an HCV genotype 1b replicon and a luciferase reporter gene was grown in Dulbecco's Modified Eagle Medium (DMEM) supplemented with 10% fetal bovine serum, 2 mM GlutaMAX, 1% MEM nonessential amino acids, 100 IU/mL penicillin, 100 μg/mL streptomycin, and 0.5 mg/mL Geneticin® (G418). For dose response testing the cells were seeded in 96-well plates at 7.5×10^3 cells per well in a volume of 50 μL, and incubated at 37° C./5% CO2. Drug solutions were made up freshly in Huh-7 media as 2× stocks. Ten additional 5-fold dilutions were prepared from these stocks in DMEM without G418. At least three hours after Zluc cells were seeded, drug treatment was initiated by adding 50 μL of drug dilutions to the plates in duplicate. Final concentrations of drug ranged from 100 μM to […]. Cells were then incubated at 37° C./5% CO2. Alternatively, compounds were tested at two concentrations (1 μM and 10 μM). […] For this, media was removed from the plates via gentle tapping. Fifty microliters of ONE-glo luciferase assay reagent was added to each well. The plates were shaken gently for 3 min at room temperature and luminescence was measured on a Victor^3 V 1420 multilabel counter (Perkin Elmer) with a 1 second read time using a 700 nm cut-off filter. The EC50 values were calculated from dose response curves from the resulting best-fit equations determined by Microsoft Excel and XLfit 4.1 software. When screening at two fixed concentrations, the results were expressed as % inhibition at 1 μM and 10 μM.

[3] = CD-1 mice, liver triphosphate, normalised to 1 μmol/kg; for Ms Liver TP AUC (pmol · hr/g at 1 μmol/kg) following a single 2 mg/kg dose: single oral 2 mg/kg dose
Method: A single oral dose of test compound at 10 mg/kg and/or 2 mg/kg in PEG 200 (dose volume 5 mL/kg) was administered to nine CD-1 male mice. Five untreated animals were used for the collection of control plasma and liver. Terminal plasma and liver samples were collected from three animals per time point at 4, 12 and 24 hours post dose. Liver specimens were collected from all animals immediately after the incision. Freezing forceps stored in liquid nitrogen were used to freeze the liver before excision. Only liver samples were analyzed for triphosphate levels.
Liver samples were analyzed for the active species nucleoside triphosphate by LC-MS/MS. The triphosphate levels were assayed by homogenizing (on ice) a known weight of mouse liver with 4× volume of 0.95 M trichloroacetic acid (TCA) in water. Internal standard solution was added to the homogenate and mixed. Sample homogenates were centrifuged at 16.1 krpm for 5 minutes. Supernatants were transferred to 96 well plates and injected onto the LC-MS/MS system. The samples were chromatographed on a Luna NH2 column using a gradient system of ammonium acetate (1 mM to 20 mM and pH 8.0 to pH 10.0) in water and acetonitrile (70:30). The analyte was detected and quantified by tandem mass spectrometry using the analyte specific MRM transition on an API4000 equipped with a Turbo Ionspray® interface.

Zluc cells = test: Cytotoxicity evaluation, CellTiter-Blue Cell Viability Assay; format: cell-based; settings: read-out: HCV Replicon CC50
Method: (§5) For cytotoxicity evaluation, Zluc cells were treated with test compound as described herein, and cell viability was monitored using the CellTiter-Blue Cell Viability Assay (Promega) by adding 20 μL of the assay solution to each well. The plates were then incubated at 37° C./5% CO2 for at least 3 hours.

[4] = as above; format: cell-based; settings: human, Zluc cells, read-out: HCV Replicon CC50
Method: as §5

[5] = Liver triphosphate after a single oral dose in cynomolgus monkeys; format: in vivo
Method: For Compound 2b, isomer 1, a single oral dose at 10 mg/kg in PEG 200 (dose volume 3 mL/kg) was administered to three cynomolgus monkeys. One Untreated animal was used for the collection of control liver. Terminal liver samples were collected from three animals at 6 hours post dose.

[6] = read-out: Wild-Type IC50, nucleoside triphosphates, wild-type genotype 1b NS5B

Nc1ncnc2c1ncn2[C@@H]1O[C@](F)(COP(=O)(O)OP(=O)(O)OP(=O)(O)O)[C@@H](O)[C@H]1O [Compound 106]
IC50 [1]: > 10000 nM

Nc1nc2c(ncn2[C@@H]2O[C@](F)(COP(=O)(O)OP(=O)(O)OP(=O)(O)O)[C@@H](O)[C@H]2O)c(=O)[nH]1 [Compound 103]
IC50 [1]: < 250 nM
IC50 [2]: < 250 nM

CC(C)OC(=O)[C@H](C)NP(=O)(OC[C@@]1(F)O[C@@H](n2ccc(=O)[nH]c2=O)[C@H](O)[C@@H]1O)Oc1ccccc1 (single isomer, unassigned) [Compound 2b Diastereomer 2]
EC50 (HCV genotype 1b replicon; listed as 2b Diastereomer 2): 1000 to 10000 nM
Ms Liver TP AUC (pmol · hr/g at 1 μmol/kg) following a single 2 mg/kg dose [3]: +++++ (1600 < +++++)
CC50 (Zluc cells): > 50000 nM

CC(C)OC(=O)[C@H](C)NP(=O)(OC[C@@]1(F)O[C@@H](n2cnc3c(=O)[nH]c(N)nc32)[C@@H](O)C1O)Oc1ccccc1 (single isomer, unassigned) [Compound 3b Diastereomer 2]
EC50 (HCV genotype 1b replicon; Hepatitis C virus, 72 h): 250 to 1000 nM
CC50 [4]: > 50000 nM

O=c1ccn(C2O[C@](F)(COP(=O)(O)OP(=O)(O)OP(=O)(O)O)[C@@H](O)[C@H]2O)c(=O)[nH]1 (stereo partly shown) [Compound 102]
IC50 [1, 6]: 250 to 1000 nM
IC50 [2]: < 250 nM

O=c1[nH]c(=O)n([C@@H]2O[C@](F)(COP(=O)(O)OP(=O)(O)OP(=O)(O)O)[C@@H](O)[C@H]2O)cc1Br [Compound 104]
IC50 [1]: 1000 to 10000 nM

Nc1ccn(C2O[C@](F)(COP(=O)(O)OP(=O)(O)OP(=O)(O)O)[C@@H](O)[C@H]2O)c(=O)n1 (stereo partly shown) [Compound 105]
IC50 [1, 6]: 250 to 1000 nM

CC(C)OC(=O)[C@H](C)NP(=O)(OC[C@@]1(F)O[C@@H](n2ccc(=O)[nH]c2=O)[C@H](O)[C@@H]1O)Oc1ccccc1 (single isomer, unassigned) [Compound 2b Diastereomer 1]
Nucleoside triphosphate in Liver C6 (pmol/g) at 1 μmol/kg ([5]; 6 hr post dose, normalised to 1 μmol/kg): + (+ ≦ 10 pmol/g)
Nucleoside triphosphate in Liver C6 (pmol/g) at 10 mg/kg ([5]; single oral 10 mg/kg, concentration at 6 hr post dose): ++++ (100 pmol/g < ++++ ≦ 160 pmol/g)
EC50 (HCV genotype 1b replicon; listed as 2b Diastereomer 1): > 10000 nM
Ms Liver TP AUC (pmol · hr/g at 1 μmol/kg) following a single 2 mg/kg dose [3]: +++++ (1600 < +++++)
Ms Liver TP AUC (pmol · hr/g at 1 μmol/kg) following a single 10 mg/kg dose ([3]; single oral 10 mg/kg dose): +++++ (1600 < +++++)
CC50 [4]: > 50000 nM

C[C@]1(O)[C@H](n2cc(Br)c(=O)[nH]c2=O)O[C@](F)(COP(=O)(O)OP(=O)(O)OP(=O)(O)O)[C@H]1O [Compound 101]
IC50 [1]: 1000 to 10000 nM
